US10167262B2, “Herbicidal substituted 3-arylpyrazoles” (FMC CORPORATION, priority 2014, dated 2019)
Where two headings read alike, the source gives them in different places.

Key:
Assay type in all cases: in vivo
[1] = tested on: barnyardgrass (Echinochloa crus-galli); experiment: Test A pre-/postemergence greenhouse herbicide test, visual injury rating 0-100; conditions: for pest or weed control at 1000 g/ha: 1000 g ai/ha; for pest or weed control at 500 g/ha: 500 g ai/ha
Procedure, shortened: (§1)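 Formulated in non-phytotoxic solvent with surfactant, compounds were applied pre- and postemergence simultaneously. Soil: loam–sand blend. Visual injury, 0 = no effect to 100 = complete control, ~10 days.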

corn (Zea mays) = experiment: as above; conditions: for plant injury at 1000 g/ha: 1000 g ai/ha; for plant injury at 500 g/ha: 500 g ai/ha
Procedure, shortened: as §1

[2] = tested on: giant foxtail (Setaria faberii); experiment: as above; conditions: for pest or weed control at 1000 g/ha: 1000 g ai/ha; for pest or weed control at 500 g/ha: 500 g ai/ha
Procedure, shortened: as §1

[3] = tested on: large (Lg) crabgrass (Digitaria sanguinalis); experiment: as above; conditions: for pest or weed control at 1000 g/ha: 1000 g ai/ha; for pest or weed control at 500 g/ha: 500 g ai/ha
Procedure, shortened: as §1

[4] = tested on: morningglory (Ipomoea spp.); experiment: as above; conditions: for pest or weed control at 1000 g/ha: 1000 g ai/ha; for pest or weed control at 500 g/ha: 500 g ai/ha
Procedure, shortened: as §1

[5] = tested on: pigweed (Amaranthus retroflexus); experiment: as above; conditions: for pest or weed control at 1000 g/ha: 1000 g ai/ha; for pest or weed control at 500 g/ha: 500 g ai/ha
Procedure, shortened: as §1

[6] = tested on: velvetleaf (Abutilon theophrasti); experiment: as above; conditions: for pest or weed control at 1000 g/ha: 1000 g ai/ha; for pest or weed control at 500 g/ha: 500 g ai/ha
Procedure, shortened: as §1

[7] = tested on: wheat (Triticum aestivum); experiment: as above; conditions: for plant injury at 1000 g/ha: 1000 g ai/ha
Procedure, shortened: as §1

[8] = tested on: blackgrass (Alopecurus myosuroides); experiment: Test C pre-/postemergence greenhouse test, plant response rating 0-100; conditions: Alopecurus myosuroides, post-emergence, Postemergence; for pest or weed control at 31 g/ha: 31 g ai/ha; for pest or weed control at 31 g/ha / pest or weed control at 62 g/ha / pest or weed control at 125 g/ha: read-out: Plant response rating (0 to 100), Blackgrass; for pest or weed control at 62 g/ha: 62 g ai/ha; for pest or weed control at 125 g/ha: 125 g ai/ha
Procedure, shortened: (§2)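 Two application timings: preemergence onto seeded loam/sand soil and postemergence onto plants at the 1–4 leaf stage (2–18 cm) in peat/vermiculite medium. Formulation: non-phytotoxic solvent with surfactant. Read-out: visual control rating, 0–100, at 13–15 days after treatment.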

[9] = tested on: ragweed (common ragweed, Ambrosia elatior); experiment: as above; conditions: Ambrosia artemisiifolia, post-emergence, Postemergence; for pest or weed control at 62 g/ha: 62 g ai/ha; for pest or weed control at 62 g/ha / pest or weed control at 125 g/ha: read-out: Plant response rating (0 to 100), Ragweed; for pest or weed control at 125 g/ha: 125 g ai/ha
Procedure, shortened: as §2

[10] = tested on: chickweed (common chickweed, Stellaria media); experiment: Test C postemergence greenhouse test, plant response rating 0-100; conditions: Stellaria media, post-emergence; for pest or weed control at 31 g/ha: 31 g ai/ha; for pest or weed control at 125 g/ha: 125 g ai/ha
Procedure, shortened: (§3)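 Postemergence spray onto 1–4-leaf potted seedlings, greenhouse incubation 13–15 days. Visual percent-control rating (0–100) against untreated plants.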

kochia (Kochia scoparia) = experiment: as above; conditions: Bassia scoparia, post-emergence; for pest or weed control at 62 g/ha: 62 g ai/ha; for pest or weed control at 125 g/ha: 125 g ai/ha
Procedure, shortened: as §3

wild oat (Avena fatua) = experiment: as above; conditions: Avena fatua, post-emergence; for pest or weed control at 62 g/ha: 62 g ai/ha; for pest or weed control at 125 g/ha: 125 g ai/ha
Procedure, shortened: as §3

[11] = Echinochloa crus-galli, post-emergence, 240 h, Postemergence, read-out: Plant response rating (0 to 100 scale), Barnyardgrass
[12] = Echinochloa crus-galli, pre-emergence, 240 h, Preemergence, read-out: Plant response rating (0 to 100 scale), Barnyardgrass
[13] = Zea mays, post-emergence, 240 h, Postemergence, read-out: Plant response rating (0 to 100 scale), Corn
[14] = Zea mays, pre-emergence, 240 h, Preemergence, read-out: Plant response rating (0 to 100 scale), Corn
[15] = Setaria faberi, post-emergence, 240 h, Postemergence, read-out: Plant response rating (0 to 100 scale), Foxtail, Giant
[16] = Setaria faberi, pre-emergence, 240 h, Preemergence, read-out: Plant response rating (0 to 100 scale), Foxtail, Giant
[17] = Digitaria sanguinalis, post-emergence, 240 h, Postemergence, read-out: Plant response rating (0 to 100 scale), Crabgrass, Large
[18] = Digitaria sanguinalis, pre-emergence, 240 h, Preemergence, read-out: Plant response rating (0 to 100 scale), Crabgrass, Large
[19] = Ipomoea, post-emergence, 240 h, Postemergence, read-out: Plant response rating (0 to 100 scale), Morningglory
[20] = Ipomoea, pre-emergence, 240 h, Preemergence, read-out: Plant response rating (0 to 100 scale), Morningglory
[21] = Amaranthus retroflexus, post-emergence, 240 h, Postemergence, read-out: Plant response rating (0 to 100 scale), Pigweed
[22] = Amaranthus retroflexus, pre-emergence, 240 h, Preemergence, read-out: Plant response rating (0 to 100 scale), Pigweed
[23] = Abutilon theophrasti, post-emergence, 240 h, Postemergence, read-out: Plant response rating (0 to 100 scale), Velvetleaf
[24] = Abutilon theophrasti, pre-emergence, 240 h, Preemergence, read-out: Plant response rating (0 to 100 scale), Velvetleaf

CCn1cc(C(=O)c2ccccc2)c(-c2cc(Cl)cc(Cl)c2)n1 [Compound 31, [3-(3,5-dichlorophenyl)-1-ethyl-1H-pyrazol-4-yl]phenylmethanone]
pest or weed control at 1000 g/ha [1, 11]: 20% | pest or weed control at 1000 g/ha [1, 12]: 0% | plant injury at 1000 g/ha (corn (Zea mays); [13]): 10% | plant injury at 1000 g/ha (corn (Zea mays); [14]): 0% | pest or weed control at 1000 g/ha [2, 15]: 0% | pest or weed control at 1000 g/ha [2, 16]: 0% | pest or weed control at 1000 g/ha [3, 17]: 0% | pest or weed control at 1000 g/ha [3, 18]: 0% | pest or weed control at 1000 g/ha [4, 19]: 0% | pest or weed control at 1000 g/ha [4, 20]: 0% | pest or weed control at 1000 g/ha [5, 21]: 100% | pest or weed control at 1000 g/ha [5, 22]: 100% | pest or weed control at 1000 g/ha [6, 23]: 90% | pest or weed control at 1000 g/ha [6, 24]: 70% | plant injury at 1000 g/ha ([7]; Triticum aestivum, post-emergence, 240 h, Postemergence, read-out: Plant response rating (0 to 100 scale), Wheat): 0% | plant injury at 1000 g/ha ([7]; Triticum aestivum, pre-emergence, 240 h, Preemergence, read-out: Plant response rating (0 to 100 scale), Wheat): 0% | pest or weed control at 16 g/ha ([8]; 16 g ai/ha): 0% | pest or weed control at 31 g/ha [8]: 0% | pest or weed control at 62 g/ha [8]: 0% | pest or weed control at 125 g/ha [8]: 0% | pest or weed control at 16 g/ha ([9]; 16 g ai/ha): 0% | pest or weed control at 62 g/ha [9]: 0% | pest or weed control at 125 g/ha [9]: 5% | pest or weed control at 16 g/ha ([10]; 16 g ai/ha): 10% | pest or weed control at 31 g/ha [10]: 70% | pest or weed control at 62 g/ha ([10]; 62 g ai/ha): 75% | pest or weed control at 125 g/ha [10]: 80% | pest or weed control at 16 g/ha (kochia (Kochia scoparia); 16 g ai/ha): 5% | pest or weed control at 62 g/ha (kochia (Kochia scoparia)): 40% | pest or weed control at 125 g/ha (kochia (Kochia scoparia)): 40% | pest or weed control at 16 g/ha (wild oat (Avena fatua); 16 g ai/ha): 0% | pest or weed control at 62 g/ha (wild oat (Avena fatua)): 0% | pest or weed control at 125 g/ha (wild oat (Avena fatua)): 0%

CCCn1cc(C(=O)c2ccccc2)c(-c2cc(Cl)cc(Cl)c2)n1 [Compound 61, [3-(3,5-dichlorophenyl)-1-propyl-1H-pyrazol-4-yl]phenylmethanone]
pest or weed control at 125 g/ha ([1]; Echinochloa crus-galli, post-emergence, 240 h, Postemergence, 125 g ai/ha, read-out: Plant response rating (0 to 100 scale), Barnyardgrass): 0% | pest or weed control at 500 g/ha [1, 11]: 0% | pest or weed control at 500 g/ha [1, 12]: 0% | Barnyardgrass plant response rating (0 = no effect, 100 = complete control) ([1]; Preemergence, 125 g ai/ha): 0 | Corn plant response rating (0 = no effect, 100 = complete control) (corn (Zea mays); Preemergence, 125 g ai/ha): 0 | plant injury at 125 g/ha (corn (Zea mays); Zea mays, post-emergence, 240 h, Postemergence, 125 g ai/ha, read-out: Plant response rating (0 to 100 scale), Corn): 0% | plant injury at 500 g/ha (corn (Zea mays); [13]): 0% | plant injury at 500 g/ha (corn (Zea mays); [14]): 0% | Foxtail, Giant plant response rating (0 = no effect, 100 = complete control) ([2]; Preemergence, 125 g ai/ha): 0 | pest or weed control at 125 g/ha ([2]; Setaria faberi, post-emergence, 240 h, Postemergence, 125 g ai/ha, read-out: Plant response rating (0 to 100 scale), Foxtail, Giant): 0% | pest or weed control at 500 g/ha [2, 15]: 0% | pest or weed control at 500 g/ha [2, 16]: 0% | pest or weed control at 125 g/ha ([3]; Digitaria sanguinalis, post-emergence, 240 h, Postemergence, 125 g ai/ha, read-out: Plant response rating (0 to 100 scale), Crabgrass, Large): 0% | pest or weed control at 500 g/ha [3, 17]: 0% | pest or weed control at 500 g/ha [3, 18]: 0% | Crabgrass, Large plant response rating (0 = no effect, 100 = complete control) ([3]; Preemergence, 125 g ai/ha): 0 | pest or weed control at 125 g/ha ([4]; Ipomoea, post-emergence, 240 h, Postemergence, 125 g ai/ha, read-out: Plant response rating (0 to 100 scale), Morningglory): 0% | pest or weed control at 500 g/ha [4, 19]: 0% | pest or weed control at 500 g/ha [4, 20]: 0% | Morningglory plant response rating (0 = no effect, 100 = complete control) ([4]; Preemergence, 125 g ai/ha): 0 | pest or weed control at 125 g/ha ([5]; Amaranthus retroflexus, post-emergence, 240 h, Postemergence, 125 g ai/ha, read-out: Plant response rating (0 to 100 scale), Pigweed): 80% | pest or weed control at 500 g/ha [5, 21]: 90% | pest or weed control at 500 g/ha [5, 22]: 90% | Pigweed plant response rating (0 = no effect, 100 = complete control) ([5]; Preemergence, 125 g ai/ha): 0 | pest or weed control at 125 g/ha ([6]; Abutilon theophrasti, post-emergence, 240 h, Postemergence, 125 g ai/ha, read-out: Plant response rating (0 to 100 scale), Velvetleaf): 80% | pest or weed control at 500 g/ha [6, 23]: 90% | pest or weed control at 500 g/ha [6, 24]: 40% | Velvetleaf plant response rating (0 = no effect, 100 = complete control) ([6]; Preemergence, 125 g ai/ha): 0 | Wheat plant response rating (0 = no effect, 100 = complete control) ([7]; Preemergence, 125 g ai/ha): 0 | plant injury at 125 g/ha ([7]; Triticum aestivum, post-emergence, 240 h, Postemergence, 125 g ai/ha, read-out: Plant response rating (0 to 100 scale), Wheat): 0% | plant injury at 500 g/ha ([7]; Triticum aestivum, post-emergence, 240 h, Postemergence, 500 g ai/ha, read-out: Plant response rating (0 to 100 scale), Wheat): 0% | pest or weed control at 31 g/ha [8]: 0% | pest or weed control at 62 g/ha [8]: 0% | pest or weed control at 125 g/ha [8]: 0% | pest or weed control at 250 g/ha ([8]; 250 g ai/ha, scale 0 to 100): 0% | pest or weed control at 62 g/ha [9]: 10% | pest or weed control at 125 g/ha [9]: 40% | pest or weed control at 250 g/ha ([9]; 250 g ai/ha, scale 0 to 100): 40% | pest or weed control at 31 g/ha [10]: 20% | pest or weed control at 125 g/ha [10]: 75% | pest or weed control at 250 g/ha ([10]; 250 g ai/ha, scale 0 to 100): 75% | pest or weed control at 62 g/ha (kochia (Kochia scoparia)): 40% | pest or weed control at 125 g/ha (kochia (Kochia scoparia)): 45% | pest or weed control at 250 g/ha (kochia (Kochia scoparia); 250 g ai/ha, scale 0 to 100): 50% | pest or weed control at 62 g/ha (wild oat (Avena fatua)): 0% | pest or weed control at 125 g/ha (wild oat (Avena fatua)): 0% | pest or weed control at 250 g/ha (wild oat (Avena fatua); 250 g ai/ha, scale 0 to 100): 0%
